Laboratory results: US11566062B2, “Methods for modulating protein mannosylation profiles using maduramycin, narasin, or salinomycin” (ARES TRADING S.A., priority 2017, dated 2023)
Entries after “also recorded” stand apart in the source; their conditions may differ.

Legend:
Format in all cases: cell-based, Chinese hamster
[1] = system: mannosylation level of mAb1; experiment: Glycosylation (mannosylation) profile of mAb1 by 2AB-UPLC; set-up: level of ManS species / level of Man6 species (M6) / level of Man7 species / level of Man8 species / level of Man9 species: dose or concentration left out as unconfirmed; conditions: for total mannosylation: 10 nM added at the start; for level of Man6 species (M6) / level of Man7 species / level of Man8 species / level of Man9 species / level of ManS species: day 12, added at the start of the culture
Method: (§1) All assays were performed in fed-batch culture. A serum-free chemically defined culture medium was used. It was used as it is, or it was supplemented with polyether ionophore compounds (maduramycin, narasin, salinomycin and lasalocid were all purchased from Sigma-Aldrich) at the desired concentrations. The culture medium was fed, on a regular basis, with a chemically defined feed medium, as well as with glucose in order to keep said glucose level in the range of >0 to about 8 g/L (feeds were done at days 3, 5, 7, 10 and additional glucose feed at day 12).
(§2) For examples 2 and 3, cultures were performed in Ambr®15 with a working volume of 14 mL (36.5° C., Dissolved Oxygen 40%, 0.1 ml/min N2, pH range: 6.75-7.15, 800 rpm). A temperature shift was performed at day 6 for the cells expressing mAb1. Further conditions are mentioned in Table 2.
(§3) Glycosylation profiles were established either by Ultra Performance Liquid Chromatography-2-amino-benzamide labelling technique (2AB-UPLC; mAb1) or by mass spectroscopy (MS; mAB2). Groups of glycans were defined in Table 1.
(§4) The cells were cultivated and the results analysed as disclosed in the material and method section.

mAb1 cells [2] = experiment: Toxicity of the polyether ionophores: viable cell density (ViCell) in fed-batch SpinTubes culture; conditions: all concentrations tested (100, 250, 500 and 1000 nM; as low as 100 nM), vs control
Method: (§5) Cells expressing mAb1 and mAb2 were inoculated at 0.2×10^6 cells per millilitre (mL).
as §1
For example 1, cultures were performed in SpinTubes® with a working volume of 30 mL. They were incubated at 36.5° C., 5% de CO2, 80% humidity and shaken at 320 rpm. Salinomycin, narasin and maduramycin were tested at 100, 250, 500 and 1000 nM.
(§6) Each of the fed-batch culture lasted 14 days.
(§7) Viable cell density and viability were measured with the ViCell® (Beckmann Coulter). Antibody titers were measured with PA-HPLC.
The cells were cultivated and the results analysed as disclosed in the material and method section. It is noted that the controls (or control conditions) according to the present invention correspond to cells grown without any polyether ionophores.

mAb1 cells [3] = experiment: Viable cell density and viability (ViCell) of mAb1 cells, fed-batch Ambr15; conditions: 5 and 10 nM added at the start of the culture
Method: as §5, §1, §2, §6, §7, §4

mAb1 cells [4] = experiment: Antibody titre (PA-HPLC) of mAb1 cells, fed-batch Ambr15; conditions: 5 and 10 nM added at the start of the culture
Method: as §5, §1, §2, §6, §7, §4

mAb2 cells [5] = experiment: Viable cell density (ViCell) of mAb2 cells, fed-batch Ambr15
Method: as §5, §1, §2, §6, §7, §4

mAb2 cells [6] = experiment: Titre (PA-HPLC) of mAb2 cells, fed-batch Ambr15
Method: as §5, §1, §2, §6, §7, §4

[7] = system: mannosylation level of mAb2; experiment: Glycosylation (mannosylation) profile of mAb2 by mass spectroscopy; conditions: for total mannosylation: 10 nM added at the start; for impact on afucoslyated glycoforms: data non shown; for level of Man5 species / level of Man6 species (M6) / level of Man7 species: day 10, 10 nM added at the start of the culture; for level of fucosylated glycoforms: not shown
Method: as §1, §2, §3, §4

[8] = 10 nM added at the start of the culture

Compound | VCD decreased by a factor (mAb1 cells [2]) | cell growth (VCD) at the end of culture compared to the control (mAb1 cells [3]) [%] | protein titre at the end of culture compared to the control (mAb1 cells [4]) [%] | level of Man6 species (M6) [1] | level of Man7 species [1] | level of Man8 species [1] | level of Man9 species [1] | level of ManS species [1] | impact on afucoslyated glycoforms [7] | level of Man5 species [7] | level of Man6 species (M6) [7] | level of Man7 species [7] | level of fucosylated glycoforms [7] | also measured
Lasalocid |  |  |  |  |  |  |  |  |  |  |  |  |  | effect on mannosylation ([1]; concentration not given): no effect on mannosylation; also recorded: no impact on mannosylation
CC[C@@H](C(=O)O)[C@@H]1O[C@@H]([C@@H](C)[C@H](O)[C@H](C)C(=O)[C@H](CC)[C@H]2O[C@]3(C=C[C@@H](O)[C@]4(CC[C@@](C)([C@H]5CC[C@](O)(CC)[C@H](C)O5)O4)O3)[C@H](C)C[C@@H]2C)[C@@H](C)C[C@@H]1C [narasin, Narasin] | 3 | −15 | −15 | about 6.5% | about 4.5% | about 3.5% | about 0.5% | about 32% | without deeply impacting afucoslyated glycoforms | about 16.5% | about 3% | about 1.0% | decreased | total mannosylation ([1]; after 12 days of culture): about 43%; total mannosylation ([1]; after 14 days of culture): 38.9%; impact on cell growth (mAb2 cells [5]; both concentrations (5 and 10 nM) added at the start of the culture): negative impact on cell growth; titre compared to the control (mAb2 cells [6]; 5 nM added at the start of the culture): +10%; titre compared to the control (mAb2 cells [6]; [8]): +15%; total mannosylation ([7]; after 10 days of culture): about 12.0%; total mannosylation ([7]; after 12 days of culture): 18.0%
CC[C@@H](C(=O)[C@@H](C)[C@@H](O)[C@H](C)[C@@H]1O[C@@H]([C@@H](CC)C(=O)O)CC[C@@H]1C)[C@H]1O[C@]2(C=C[C@@H](O)[C@]3(CC[C@@](C)([C@H]4CC[C@](O)(CC)[C@H](C)O4)O3)O2)[C@H](C)C[C@@H]1C [salinomycin, Salinomycin] | 3 | −13 | −15 | about 3.2% | about 1.5% | about 0.3% | about 0.45% | about 27% | without deeply impacting afucoslyated glycoforms | about 15% | about 2.5% | about 0.65% | decreased | cell growth compared to the control at the end of culture (mAb2 cells [5]; [8]): not more than 10%
